Assay results reported in US12187723B2 (BRISTOL-MYERS SQUIBB COMPANY, priority 2019, dated 2025).

What follows are molecules tested against T1, human TLR8 (Homo sapiens, UniProt Q9NR97) (assay: TLR8 inhibition reporter assay (HEK-Blue SEAP)). Settings: HEK-Blue cells overexpressing human TLR8, R848 15.9 μM, 22 hour incubation.
T1 construct: host or cells: HEK-Blue cells
T1 sequence (Q9NR97 27-1041): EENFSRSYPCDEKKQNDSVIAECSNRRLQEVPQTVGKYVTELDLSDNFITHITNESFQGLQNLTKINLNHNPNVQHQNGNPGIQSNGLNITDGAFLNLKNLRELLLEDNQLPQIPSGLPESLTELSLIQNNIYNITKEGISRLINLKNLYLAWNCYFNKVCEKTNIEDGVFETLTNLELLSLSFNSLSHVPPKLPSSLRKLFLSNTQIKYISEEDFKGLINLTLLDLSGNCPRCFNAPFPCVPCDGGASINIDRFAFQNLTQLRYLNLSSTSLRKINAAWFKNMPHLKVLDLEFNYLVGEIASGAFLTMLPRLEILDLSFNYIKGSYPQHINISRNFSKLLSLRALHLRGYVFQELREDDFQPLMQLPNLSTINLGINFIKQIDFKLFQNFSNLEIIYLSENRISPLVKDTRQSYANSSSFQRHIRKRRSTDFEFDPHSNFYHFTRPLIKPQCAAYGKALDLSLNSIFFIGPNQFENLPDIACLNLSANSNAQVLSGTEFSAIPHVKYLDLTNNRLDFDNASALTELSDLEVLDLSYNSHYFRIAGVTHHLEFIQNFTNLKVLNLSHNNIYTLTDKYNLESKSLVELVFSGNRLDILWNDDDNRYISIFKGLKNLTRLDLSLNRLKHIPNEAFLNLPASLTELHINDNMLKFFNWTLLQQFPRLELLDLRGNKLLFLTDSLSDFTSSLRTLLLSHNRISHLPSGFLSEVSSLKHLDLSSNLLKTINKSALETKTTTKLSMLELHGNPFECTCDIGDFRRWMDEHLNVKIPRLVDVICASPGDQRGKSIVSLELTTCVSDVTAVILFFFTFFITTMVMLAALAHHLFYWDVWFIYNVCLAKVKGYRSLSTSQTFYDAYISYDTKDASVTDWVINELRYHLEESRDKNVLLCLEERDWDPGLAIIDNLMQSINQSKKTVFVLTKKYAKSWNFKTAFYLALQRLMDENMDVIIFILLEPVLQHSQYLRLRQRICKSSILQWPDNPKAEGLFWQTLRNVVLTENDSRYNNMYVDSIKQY
Type: cell-based
How it was run: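 Screening used HEK-Blue cells overexpressing one human TLR (7, 8 or 9) and an IFN-β minimal promoter–NF-κB/AP-1 SEAP construct. Stimulation lasted 22 h at 37 °C with receptor-specific agonist: gardiquimod, R848 or ODN2006 at 7.5 μM, 15.9 μM and 5 nM.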

Structure (SMILES)	IC50 [nM]
COc1cc(-c2cc3[nH]c(=O)n(C4CCN(C5COC5)CC4)c3cc2C(C)C)cn2ncnc12 [Example 157, 6-isopropyl-5-(8-methoxy-[1,2,4]triazolo[1,5-a]pyridin-6-yl)-1-(1-(oxetan-3-yl)piperidin-4-yl)-1,3-dihydro-2H-benzo[d]imidazol-2-one]	5.42
COc1cc(-c2cc3[nH]c(=O)n(C4CCN(C5CCOCC5)CC4)c3cc2C(C)C)cn2ncnc12 [Example 158, 6-isopropyl-5-(8-methoxy-[1,2,4]triazolo[1,5-a]pyridin-6-yl)-1-(1-(tetrahydro-2H-pyran-4-yl)piperidin-4-yl)-1,3-dihydro-2H-benzo[d]imidazol-2-one]	16.2
COc1cc(-c2cc3[nH]c(=O)n(C4CCN(CC5CCOCC5)CC4)c3cc2C(C)C)cn2ncnc12 [Example 159, 6-isopropyl-5-(8-methoxy-[1,2,4]triazolo[1,5-a]pyridin-6-yl)-1-(1-((tetrahydro-2H-pyran-4-yl)methyl)piperidin-4-yl)-1,3-dihydro-2H-benzo[d]imidazol-2-one]	4.52
COc1cc(-c2cc3[nH]c(=O)n(C4CCN(CC5CCOC5)CC4)c3cc2C(C)C)cn2ncnc12 (stereo not drawn) [Example 160, 6-isopropyl-5-(8-methoxy-[1,2,4]triazolo[1,5-a]pyridin-6-yl)-1-(1-((tetrahydrofuran-3-yl)methyl)piperidin-4-yl)-1,3-dihydro-2H-benzo[d]imidazol-2-one]	5.62
COc1cc(-c2cc3[nH]c(=O)n(C4CCN(CC5CC5)CC4)c3cc2C(C)C)cn2ncnc12 [Example 161, 1-(1-(cyclopropylmethyl)piperidin-4-yl)-6-isopropyl-5-(8-methoxy-[1,2,4]triazolo[1,5-a]pyridin-6-yl)-1,3-dihydro-2H-benzo[d]imidazol-2-one]	6.04
COc1cc(-c2cc3[nH]c(=O)n(C4CCN(C5CCOC5)CC4)c3cc2C(C)C)cn2ncnc12 (stereo not drawn) [Example 162, 6-isopropyl-5-(8-methoxy-[1,2,4]triazolo[1,5-a]pyridin-6-yl)-1-(1-(tetrahydrofuran-3-yl)piperidin-4-yl)-1,3-dihydro-2H-benzo[d]imidazol-2-one]	6.56
COc1cc(-c2cc3[nH]c(=O)n(C4CCN(C(C)C)CC4)c3cc2C(C)C)cn2ncnc12 [Example 163, 6-isopropyl-1-(1-isopropylpiperidin-4-yl)-5-(8-methoxy-[1,2,4]triazolo[1,5-a]pyridin-6-yl)-1,3-dihydro-2H-benzo[d]imidazol-2-one]	7.58
COc1cc(-c2cc3[nH]c(=O)n(C4CCN(CC(C)C)CC4)c3cc2C(C)C)cn2ncnc12 [Example 164, 1-(1-isobutylpiperidin-4-yl)-6-isopropyl-5-(8-methoxy-[1,2,4]triazolo[1,5-a]pyridin-6-yl)-1,3-dihydro-2H-benzo[d]imidazol-2-one]	9.67
CCC(CC)CN1CCC(n2c(=O)[nH]c3cc(-c4cc(OC)c5ncnn5c4)c(C(C)C)cc32)CC1 [Example 165, 1-(1-(2-ethylbutyl)piperidin-4-yl)-6-isopropyl-5-(8-methoxy-[1,2,4]triazolo[1,5-a]pyridin-6-yl)-1,3-dihydro-2H-benzo[d]imidazol-2-one]	7.03
CCc1cc2c(cc1-c1cc(OC)c3ncnn3c1)[nH]c(=O)n2[C@H]1CC[C@@H](NC2CCOCC2)CC1 [Example 166, 6-ethyl-5-(8-methoxy-[1,2,4]triazolo[1,5-a]pyridin-6-yl)-1-((1s,4s)-4-((tetrahydro-2H-pyran-4-yl)amino)cyclohexyl)-1,3-dihydro-2H-benzo[d]imidazol-2-one]	0.54
CCc1cc2c(cc1-c1cc(OC)c3ncnn3c1)[nH]c(=O)n2[C@H]1CC[C@@H](NC(C)C)CC1 [Example 167, 6-ethyl-1-((1s,4s)-4-(isopropylamino)cyclohexyl)-5-(8-methoxy-[1,2,4]triazolo[1,5-a]pyridin-6-yl)-1,3-dihydro-2H-benzo[d]imidazol-2-one]	0.82
CCCN(CCC)[C@H]1CC[C@@H](n2c(=O)[nH]c3cc(-c4cc(OC)c5ncnn5c4)c(CC)cc32)CC1 [Example 168, 1-((1s,4s)-4-(dipropylamino)cyclohexyl)-6-ethyl-5-(8-methoxy-[1,2,4]triazolo[1,5-a]pyridin-6-yl)-1,3-dihydro-2H-benzo[d]imidazol-2-one]	1.53
